From US20040034078A1 (Agouron Pharmaceuticals, Inc., priority 2002, published 2004)

Assays:
purified PARP protein = purified PARP protein (Homo sapiens, UniProt P09874); experiment: PARP Enzyme Inhibition Assay; assay type: biochemical; conditions: [32P]NAD+ incorporation, 500 μM NAD+, 25° C.; competitive inhibition fit; read-out: Inhibition Constant Ki
Procedure: The PARP enzyme-inhibiting activities of test compounds were assayed as described by Simonin et al. (J. Biol. Chem. (1993), 268:8529-8535) and Marsischky et al. (J. Biol. Chem. (1995), 270:3247-3254) with minor modifications as follows. Samples (50 μL) containing 20 nM purified PARP protein, 10 μg/mL DNAse I-activated calf thymus DNA (sigma), 500 μM NAD^+, 0.5 μCi [^32P]NAD^+, 2% DMSO, and various concentrations of test compounds were incubated in sample buffer (50 mM Tris pH 8.0, 10 mM MgCl2, 1 mM tris(carboxyethyl)phosphine HCl) at 25° C. for 5 minutes. Under these conditions, the reaction rate was linear for times up to 10 minutes. The reaction was stopped by the addition of an equal volume of ice-cold 40% trichloroacetic acid to the samples, which were then incubated on ice for 15 minutes. The samples were then transferred to a Bio-Dot microfiltration apparatus (BioRad), filtered through Whatman GF/C glass-fiber filter paper, washed 3 times with 150 μL of wash buffer (5% trichloroacetic acid, 1% inorganic pyrophosphate), and dried. [^32P]ADP-Ribose incorporation into the acid-insoluble material was quantitated using a PhosphorImager (Molecular Dynamics) and ImageQuant software. Inhibition constants (Ki) were calculated by non-linear regression analyses using the velocity equation for competitive inhibition (Segel, Enzyme Kinetics: Behavior and Analysis of Rapid Equilibrium and Steady-State Enzyme Systems, John Wiley & Sons, Inc., New York (1975), 100-125). In the case of tight-binding inhibitors, 5 nM enzyme was used and the reaction was incubated at 25° C. for 25 minutes. Ki values for tight-binding inhibitors were calculated using the equation described by Sculley et al. (Biochim. Biophys. Acta (11986), 874:44-53).

A549 cells = experiment: Cytotoxicity Potentiation Assay; assay type: cell-based; conditions: ratio of IC50 of topotecan alone to IC50 of topotecan in combination with test compound
Procedure: A549 cells (ATCC, Rockville, Md.) were seeded into 96-well cell culture plates (Falcon brand, Fisher Scientific, Pittsburgh, Pa.) 16 to 24 hours before experimental manipulation. Cells were then treated with a test compound (or a combination of test compounds where indicated) for either 3 days or 5 days. At the end of treatments, relative cell number was determined either by MTT assay or SRB assay. For the MTT assay, 0.2 μg/μl of MTT (3-(4,5-dimethylthiazol-2-yl)-2,5-diphenyltetrazolium bromide, Sigma Chemical Co., St. Louis, Mo.) was added to each well of a plate, and the plate was incubated in a cell-culture incubator for 4 hours. Metabolized MTT in each well was solubilized in 150 μl of DMSO (Sigma Chemical Co.) with shaking and quantified with a Wallac 1420 Victor plate reader (EG & G Wallac, Gaithersburg, Md.) at 540 nm. For the SRB assay, cells were fixed with 10% trichloroacetic acid (Sigma Chemical Co) for an hour at 4° C. After extensively washing, fixed cells were stained for 30 minutes with 0.4% sulforhodamine B (SRB, Sigma Chemical Co.) in 1% acetic acid (Sigma Chemical Co). Unbound SRB was washed away with 1% acetic acid. Then the cultures were air-dried, and bound dye was solubilized with 10 mM unbuffered Tris base (Sigma Chemical Co) with shaking. The bound dye was measured photometrically with the Wallac Victor plate reader at 515 nm. The ratio of the OD (optical density) value of a compound-treated culture to the OD value of a mock-treated culture, expressed in percentage, was used to quantify the cytotoxicity of a compound. The concentration at which a compound causes 50% cytotoxicity is referred to as IC50. To quantify the potentiation of the cytotoxicity of topotecan or temozolomide by test compounds, a dimensionless parameter PF50 is used and is defined as the ratio of the IC50 Of topotecan or temozolomide alone to the IC50 of topotecan or temozolomide in combination with a test compound. For the compounds of the invention, PF50 values were determined by testing with topotecan.

Sequence of purified PARP protein (P09874 whole entry): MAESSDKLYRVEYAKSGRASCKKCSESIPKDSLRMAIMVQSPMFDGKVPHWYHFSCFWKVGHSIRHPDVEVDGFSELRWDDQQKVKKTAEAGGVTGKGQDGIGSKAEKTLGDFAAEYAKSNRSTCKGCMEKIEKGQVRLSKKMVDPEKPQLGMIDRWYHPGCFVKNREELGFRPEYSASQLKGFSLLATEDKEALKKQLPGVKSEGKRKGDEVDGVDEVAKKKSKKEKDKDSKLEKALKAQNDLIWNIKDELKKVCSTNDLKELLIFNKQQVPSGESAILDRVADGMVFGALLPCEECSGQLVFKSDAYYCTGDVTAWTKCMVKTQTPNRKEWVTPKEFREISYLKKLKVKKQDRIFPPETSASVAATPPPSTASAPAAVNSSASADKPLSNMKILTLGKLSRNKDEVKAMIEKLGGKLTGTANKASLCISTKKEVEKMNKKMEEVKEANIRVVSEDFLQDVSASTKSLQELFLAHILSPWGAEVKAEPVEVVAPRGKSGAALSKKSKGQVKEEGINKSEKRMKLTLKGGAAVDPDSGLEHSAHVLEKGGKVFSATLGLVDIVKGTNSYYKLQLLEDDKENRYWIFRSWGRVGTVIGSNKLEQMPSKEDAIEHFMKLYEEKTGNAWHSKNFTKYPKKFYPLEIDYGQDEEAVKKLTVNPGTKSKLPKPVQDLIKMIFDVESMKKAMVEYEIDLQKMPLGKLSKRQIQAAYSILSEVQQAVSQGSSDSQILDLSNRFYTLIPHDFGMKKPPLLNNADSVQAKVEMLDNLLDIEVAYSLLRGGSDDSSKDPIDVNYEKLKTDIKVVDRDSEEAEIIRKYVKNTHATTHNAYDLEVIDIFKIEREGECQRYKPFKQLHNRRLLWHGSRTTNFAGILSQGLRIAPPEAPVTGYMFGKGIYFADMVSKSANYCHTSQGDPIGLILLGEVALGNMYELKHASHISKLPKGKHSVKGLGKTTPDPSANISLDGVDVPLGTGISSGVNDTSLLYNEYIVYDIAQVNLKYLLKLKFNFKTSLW

With `CCCCNCCSCc1nc2c(C(N)=O)cccc2[nH]1` [Compound 1, 2-(2-Butylamino-ethylsulfanylmethyl)-1H-benzimidazole-4-carboxylic Acid Amide] the Ki (purified PARP protein) was 0.029 ± 0.007 µM and the “Cytotoxicity Potentiation PF50” value (A549 cells) was 1.2.
In the case of `NC(=O)c1cccc2[nH]c(CSc3ccccc3C3=NCCCN3)nc12` [Compound 7], the Ki (purified PARP protein) is reported as 0.0069 ± 0.0004 µM and the “Cytotoxicity Potentiation PF50” value (A549 cells) is reported as 2.2.
`CC(=O)Nc1ccc(SCc2nc3c(C(N)=O)cccc3[nH]2)cc1` [Compound 9, 2-(4-Acetylamino-phenylsulfanylmethyl)-1H-benzimidazole-4-carboxylic Acid Amide] was tested, and the Ki (purified PARP protein) was 0.01 ± 0.003 µM and the “Cytotoxicity Potentiation PF50” value (A549 cells) was 1.1.
For `CC(=O)c1ccc(N2CCN(Cc3nc4c(C(N)=O)cccc4[nH]3)CC2)cc1` [Compound 17, 2-[4-(4-Acetyl-phenyl)-piperazin-1-vimethyl]-1H-benzimidazole-4-carboxylic Acid Amide], the Ki (purified PARP protein) was 0.019 ± 0.002 µM and the “Cytotoxicity Potentiation PF50” value (A549 cells) was 1.2.
In the case of `CN(CCc1ccccc1)Cc1nc2c(C(N)=O)cccc2[nH]1` [Compound 18, 2-[(Methyl-phenethyl-amino)-methyl]-1H-benzimidazole-4-carboxylic Acid Amide], the Ki (purified PARP protein) is reported as 0.0086 ± 0.0001 µM and the “Cytotoxicity Potentiation PF50” value (A549 cells) is reported as 1.4.
With `NC(=O)c1cccc2[nH]c(CN3CCc4ccccc4C3)nc12` [Compound 19, 2-(3,4-Dihydro-1H-isoqluinolin-2-ylmethyl)-1H-benzimidazole-4-carboxylic Acid Amide] the Ki (purified PARP protein) was 0.022 ± 0.002 µM and the “Cytotoxicity Potentiation PF50” value (A549 cells) was 1.1.
`NC(=O)c1cccc2[nH]c(CS(=O)(=O)c3ccc([N+](=O)[O-])cc3)nc12` [Compound 27, 2-(4-Nitro-benzenesulfonylmethyl)-1H-benzimidazole-4-carboxylic Acid Amide] was tested, and the Ki (purified PARP protein) was 0.0025 ± 0.0002 µM and the “Cytotoxicity Potentiation PF50” value (A549 cells) was 1.3.
For `NC(=O)c1cccc2[nH]c(C[S+]([O-])c3ccc([N+](=O)[O-])cc3)nc12` (stereo not shown) [Compound 28, 2-(4-Nitro-benzenesulfinylmethyl)-1H-benzimidazole-4-carboxylic Acid Amide], the Ki (purified PARP protein) was 0.0039 ± 0.0006 µM and the “Cytotoxicity Potentiation PF50” value (A549 cells) was 1.4.
In the case of `NC(=O)c1cccc2[nH]c(CS(=O)(=O)c3ccc(O)cc3)nc12` [Compound 29, 2-(4-Hydroxy-benzenesulfonylmethyl)-1H-benzimidazole-4-carboxylic Acid Amide], the Ki (purified PARP protein) is reported as 0.024 µM and the “Cytotoxicity Potentiation PF50” value (A549 cells) is reported as 1.2.
With `CCCCNCCS(=O)(=O)Cc1nc2c(C(N)=O)cccc2[nH]1` [Compound 30, 2-(2-Butylamino-ethanesulfonylmethyl)-1H-benzimidazole-4-carboxylic Acid Amide] the Ki (purified PARP protein) was 0.026 µM and the “Cytotoxicity Potentiation PF50” value (A549 cells) was 1.1.
In the case of `CC(=O)Nc1ccc(S(=O)(=O)Cc2nc3c(C(N)=O)cccc3[nH]2)cc1` [Compound 32, 2-(4-Acetylamino-benzenesulfonylmethyl)-1H-benzimidazole-4-carboxylic Acid Amide], the Ki (purified PARP protein) is reported as 0.0038 ± 0.0005 µM and the “Cytotoxicity Potentiation PF50” value (A549 cells) is reported as 1.1.
For `COc1ccc(S(=O)(=O)Cc2nc3c(C(N)=O)cccc3[nH]2)cc1` [Compound 33, 2-(4-Methoxy-benzenesulfonylmethyl)-1H-benzimidazole-4-carboxylic Acid Amide], the Ki (purified PARP protein) was 0.0103 ± 0.0003 µM and the “Cytotoxicity Potentiation PF50” value (A549 cells) was 1.3.
In the case of `NC(=O)c1cccc2[nH]c(CS(=O)(=O)c3ccc(C(F)(F)F)cc3)nc12` [Compound 34, 2-(4-Trifluoromethyl-benzenesulfonylmethyl)-1H-benzimidazole-4-carboxylic Acid Amide], the Ki (purified PARP protein) is reported as 0.012 ± 0.001 µM and the “Cytotoxicity Potentiation PF50” value (A549 cells) is reported as 1.2.
`NC(=O)c1cccc2[nH]c(CS(=O)(=O)c3ccc(NC(=O)OCc4ccccc4)cc3)nc12` [Compound 38, [4(4-Carbamoyl-1H-benzoimidazol-2-ylmethanesulfonyl)-phenyl]-carbamic Acid Benzyl Ester] was tested, and the Ki (purified PARP protein) was 0.016 ± 0.001 µM and the “Cytotoxicity Potentiation PF50” value (A549 cells) was 1.1.
For `CC(=O)Nc1ccc(CSc2nc3c(C(N)=O)cccc3[nH]2)cc1` [Compound 42, 2-(4-Acetylamino-benzylsulfanyl)-1H-benzimidazole-4-carboxylic Acid Amide], the Ki (purified PARP protein) was 0.011 ± 0.003 µM and the “Cytotoxicity Potentiation PF50” value (A549 cells) was 1.1.
With `CC(=O)Nc1ccc(S(=O)(=O)Cc2nc3c(C(N)=O)cccc3n2C)cc1` [Compound 48, 2-(4-Acetylamino-benzenesulfonylmethyl)-1-methyl-1H-benzoimidazole-4-carboxylic Acid Amide] the Ki (purified PARP protein) was 0.01 ± 0.003 µM and the “Cytotoxicity Potentiation PF50” value (A549 cells) was 1.2.
With `NC(=O)c1cccc2[nH]c(CS(=O)(=O)c3ccc(NC(=O)CO)cc3)nc12` [Compound 49] the Ki (purified PARP protein) was 0.0074 µM and the “Cytotoxicity Potentiation PF50” value (A549 cells) was 1.0.
